# In PubChem BioAssay (NCI):
#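 Results reflect a 48-hour exposure of cells in 96-well plates to compound at five concentrations. GI50 marks 50% less growth. TGI: concentration producing complete growth inhibition.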
# Legend:
# Experiment in all cases: NCI anticancer screen, dose series, 48 h
# HL-60(TB) leukemia = system: HL-60(TB) leukemia
# K-562 leukemia = system: K-562 leukemia
# MOLT-4 leukemia = system: MOLT-4 leukemia
# A549 NSCLC = system: A549 NSCLC
# CCRF-CEM leukemia = system: CCRF-CEM leukemia
# SK-MEL-2 melanoma = system: SK-MEL-2 melanoma
# HCT-116 colon = system: HCT-116 colon
# NCI-H23 lung = system: NCI-H23 lung
# LOX IMVI melanoma = system: LOX IMVI melanoma
# PC-3 prostate = system: PC-3 prostate
Compound,TGI (HL-60(TB) leukemia),TGI (K-562 leukemia),TGI (MOLT-4 leukemia),TGI (A549 NSCLC),TGI (CCRF-CEM leukemia),TGI (SK-MEL-2 melanoma),TGI (HCT-116 colon),TGI (NCI-H23 lung),TGI (LOX IMVI melanoma),GI50 (HL-60(TB) leukemia),GI50 (K-562 leukemia),GI50 (MOLT-4 leukemia),GI50 (A549 NSCLC),GI50 (CCRF-CEM leukemia),GI50 (SK-MEL-2 melanoma),GI50 (PC-3 prostate),TGI (PC-3 prostate),GI50 (HCT-116 colon),GI50 (NCI-H23 lung),GI50 (LOX IMVI melanoma)
CCOC(=O)C=C1CCN(C(=O)c2ccccc2)CC1,> 100 µM,> 100 µM,> 100 µM,> 100 µM,> 100 µM,0.284 µM,> 100 µM,> 100 µM,> 100 µM,,,,,,,,,,,
CS(=O)(=O)CC1=Nc2nnc(CCCCCCCc3nnc4n3C(=O)C(CS(C)(=O)=O)=N4)n2C1=O,> 100 µM,> 100 µM,> 100 µM,> 100 µM,> 100 µM,,> 100 µM,> 100 µM,> 100 µM,,,,,,,,,,,
CC12CCC(=O)C(O1)C1C(=O)c3cc4ccccc4cc3C(=O)C12 (centres undefined),48 µM,41.5 µM,74.1 µM,> 100 µM,31 µM,> 100 µM,34.6 µM,31.6 µM,,19.5 µM,16 µM,10.4 µM,32.4 µM,11.4 µM,46.4 µM,16.8 µM,43.4 µM,17.7 µM,15.8 µM,
COc1ccc2c(c1)CCC1C2CCC2(C)C1CCC2(O)CNC(=O)CCCCC1CCSS1 (centres undefined),,> 100 µM,> 100 µM,> 100 µM,4.33 µM,> 100 µM,> 100 µM,> 100 µM,> 100 µM,,2.63 µM,1.66 µM,5.73 µM,1.59 µM,33.2 µM,5.91 µM,> 100 µM,9.3 µM,20.8 µM,4.37 µM
O=C(NCCCCCCNC(=O)c1cccc2ccccc12)c1cccc2ccccc12,> 100 µM,> 100 µM,> 100 µM,> 100 µM,> 100 µM,34.5 µM,53.9 µM,> 100 µM,44.3 µM,,,,,,,,,,,
COc1cccc(OC(=O)c2ccccc2Nc2ccnc(C(F)(F)F)c2)c1,15.2 µM,> 100 µM,4.29 µM,20.7 µM,,> 100 µM,3.07 µM,6.73 µM,10.4 µM,2.15 µM,0.739 µM,0.692 µM,3.18 µM,,34.4 µM,3.25 µM,> 100 µM,1.12 µM,2.04 µM,1.07 µM
COc1cc2cc(Oc3ccc(NC(=O)Nc4ccc(Cl)c(C(F)(F)F)c4)cc3)c(C)nc2cc1OCCN1CCCCC1,3.53 µM,2.33 µM,2.71 µM,,3.76 µM,3.64 µM,2.98 µM,3.28 µM,,1.87 µM,0.547 µM,1.1 µM,,1.68 µM,1.87 µM,1.27 µM,2.69 µM,1.54 µM,1.69 µM,
C=C1C(=O)OC2CC3(C)C=CC(=O)C(=C)C3CC12 (centres undefined),,> 100 µM,3.52 µM,20.4 µM,,3.13 µM,2.54 µM,3.48 µM,1.86 µM,,,,,,,,,,,
O=S(=O)(c1ccc(NC(=S)NCc2cccnc2)cc1)N1CCCCC1,,> 100 µM,> 100 µM,> 100 µM,> 100 µM,> 100 µM,> 100 µM,> 100 µM,> 100 µM,,1.38 µM,40.3 µM,11 µM,0.823 µM,16.6 µM,1.5 µM,> 100 µM,0.47 µM,28.6 µM,6.93 µM
O=C(CCn1[nH]c(=O)c(Cl)c(Cl)c1=O)NOCCCc1ccccc1,> 100 µM,> 100 µM,> 100 µM,> 100 µM,> 100 µM,> 100 µM,> 100 µM,> 100 µM,> 100 µM,,,,,,,,,,,
Cc1ccc(C(=O)Nc2ccc(S(=O)(=O)O)c3cc(S(=O)(=O)O)cc(S(=O)(=O)O)c23)cc1NC(=O)c1cccc(N)c1,> 100 µM,> 100 µM,> 100 µM,> 100 µM,> 100 µM,> 100 µM,,> 100 µM,,,,,,,,,> 100 µM,,,
COc1cc2nc(Cl)nc(Nc3cccc(C(=O)/C=C/c4ccccc4)c3)c2cc1OC,> 100 µM,> 100 µM,> 100 µM,> 100 µM,> 100 µM,> 75.9 µM,5.16 µM,> 100 µM,,3.61 µM,1.74 µM,2.77 µM,> 38.7 µM,2.45 µM,> 21 µM,3.86 µM,27.8 µM,1.62 µM,6.63 µM,
COC(=O)[C@@H]1CSC(=S)N1C(=O)C[C@H]1CC=CC[C@H]1CC(=O)Sc1ccccc1,14 µM,38.9 µM,16.7 µM,40.1 µM,14.9 µM,52 µM,30.8 µM,46.5 µM,33.1 µM,,,,,,,,,,,
O=C(CC1Sc2ccccc2NC1=O)Nc1cc(Cl)ccc1Cl (centres undefined),> 100 µM,> 100 µM,> 100 µM,> 100 µM,> 100 µM,> 100 µM,> 100 µM,> 100 µM,> 100 µM,,,,,,,,,,,
CC1(Sc2ccccc2)CN(Cc2ccccc2)C1=O (centres undefined),> 100 µM,> 100 µM,> 100 µM,> 100 µM,> 100 µM,> 100 µM,> 100 µM,> 100 µM,> 100 µM,,,,,,,,,,,
COC(=O)CCC(=O)N1Cc2cc(C)ccc2N(C(=O)CCC(=O)OC)Cc2cc(C)ccc21,> 100 µM,> 100 µM,> 100 µM,> 100 µM,> 100 µM,> 100 µM,> 100 µM,> 100 µM,> 100 µM,,,,,,,,,,,
Cc1ccc2c(c1)C1(C)OC(CC(N)C1O)O2 (centres undefined),> 100 µM,> 100 µM,> 100 µM,> 100 µM,> 100 µM,> 100 µM,> 100 µM,> 100 µM,> 100 µM,,,,,,,,,,,
Cc1ccc2[nH]c(C(=O)NN3C(=O)CSC34CCCCC4C)c(-c3ccccc3)c2c1 (centres undefined),,42.1 µM,28.4 µM,28.2 µM,38.5 µM,38.7 µM,34.2 µM,33.2 µM,35.6 µM,,10.8 µM,9.38 µM,13.2 µM,17 µM,20.9 µM,12.5 µM,30.1 µM,14.5 µM,17 µM,18.9 µM
